Results published in PubChem BioAssay (NCI).
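These data come from cells grown in 96-well plates and exposed to compound for 48 hours at five concentrations. Abbreviation: GI50, concentration required for 50% inhibition of growth. TGI: total growth inhibition.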

Columns and labels:
Test in all cases: NCI-60 cell line screen, 48 h
PC-3 prostate = tested on: PC-3 prostate
SR leukemia = tested on: SR leukemia
SF-295 CNS = tested on: SF-295 CNS
A498 renal = tested on: A498 renal
SK-MEL-2 melanoma = tested on: SK-MEL-2 melanoma
SK-OV-3 ovarian = tested on: SK-OV-3 ovarian
M14 melanoma = tested on: M14 melanoma
HL-60(TB) leukemia = tested on: HL-60(TB) leukemia
TK-10 renal = tested on: TK-10 renal
NCI-H23 lung = tested on: NCI-H23 lung
SN12C renal = tested on: SN12C renal
EKVX NSCLC = tested on: EKVX NSCLC
SNB-19 CNS = tested on: SNB-19 CNS
UACC-257 melanoma = tested on: UACC-257 melanoma
UACC-62 melanoma = tested on: UACC-62 melanoma
OVCAR-5 ovarian = tested on: OVCAR-5 ovarian
BT-549 breast = tested on: BT-549 breast
MOLT-4 leukemia = tested on: MOLT-4 leukemia
CCRF-CEM leukemia = tested on: CCRF-CEM leukemia
MDA-MB-231 breast = tested on: MDA-MB-231 breast
DU-145 prostate = tested on: DU-145 prostate
K-562 leukemia = tested on: K-562 leukemia
HOP-92 NSCLC = tested on: HOP-92 NSCLC
HCT-15 colon = tested on: HCT-15 colon
SK-MEL-5 melanoma = tested on: SK-MEL-5 melanoma
NCI/ADR-RES ovarian = tested on: NCI/ADR-RES ovarian
SNB-75 CNS = tested on: SNB-75 CNS
ACHN renal = tested on: ACHN renal
SW-620 colon = tested on: SW-620 colon
SF-268 CNS = tested on: SF-268 CNS
IGROV1 ovarian = tested on: IGROV1 ovarian
SF-539 CNS = tested on: SF-539 CNS
NCI-H226 lung = tested on: NCI-H226 lung
OVCAR-3 ovarian = tested on: OVCAR-3 ovarian
CAKI-1 renal = tested on: CAKI-1 renal
COLO 205 colon = tested on: COLO 205 colon
MALME-3M melanoma = tested on: MALME-3M melanoma
T-47D breast = tested on: T-47D breast
OVCAR-4 ovarian = tested on: OVCAR-4 ovarian
UO-31 renal = tested on: UO-31 renal
MCF7 breast = tested on: MCF7 breast
HT29 colon = tested on: HT29 colon
NCI-H460 lung = tested on: NCI-H460 lung
MDA-MB-435 = tested on: MDA-MB-435
NCI-H522 lung = tested on: NCI-H522 lung
SK-MEL-28 melanoma = tested on: SK-MEL-28 melanoma
786-0 renal = tested on: 786-0 renal
RXF 393 renal = tested on: RXF 393 renal
HOP-62 NSCLC = tested on: HOP-62 NSCLC
HS 578T breast = tested on: HS 578T breast
OVCAR-8 ovarian = tested on: OVCAR-8 ovarian
KM12 colon = tested on: KM12 colon
RPMI-8226 leukemia = tested on: RPMI-8226 leukemia
A549 NSCLC = tested on: A549 NSCLC
LOX IMVI melanoma = tested on: LOX IMVI melanoma
HCT-116 colon = tested on: HCT-116 colon
U251 CNS = tested on: U251 CNS
HCC-2998 colon = tested on: HCC-2998 colon

Cc1nc2cnc(N)c(C#Cc3cncc(C(=O)Nc4ccc(Cl)c(C(F)(F)F)c4)c3)c2nc1C
GI50 (PC-3 prostate): 3.9 µM | TGI (PC-3 prostate): 18.7 µM | GI50 (SR leukemia): 1710 nM | TGI (SR leukemia): 5.02 µM | GI50 (SF-295 CNS): 3.44 µM | TGI (SF-295 CNS): 18.8 µM | GI50 (A498 renal): 3.1 µM | TGI (A498 renal): 15.4 µM | GI50 (SK-MEL-2 melanoma): 328 nM | TGI (SK-MEL-2 melanoma): 1890 nM | GI50 (SK-OV-3 ovarian): 9.11 µM | TGI (SK-OV-3 ovarian): 23.3 µM | GI50 (M14 melanoma): 243 nM | TGI (M14 melanoma): 1850 nM | GI50 (HL-60(TB) leukemia): 75.4 nM | TGI (HL-60(TB) leukemia): 4.12 µM | GI50 (TK-10 renal): 5.32 µM | TGI (TK-10 renal): 18.9 µM | GI50 (NCI-H23 lung): 579 nM | TGI (NCI-H23 lung): 5.4 µM | GI50 (SN12C renal): 1160 nM | TGI (SN12C renal): 4 µM | GI50 (EKVX NSCLC): 2480 nM | TGI (EKVX NSCLC): 19.1 µM | GI50 (SNB-19 CNS): 6.53 µM | TGI (SNB-19 CNS): 20.7 µM | GI50 (UACC-257 melanoma): 519 nM | TGI (UACC-257 melanoma): 9.65 µM | GI50 (UACC-62 melanoma): 264 nM | TGI (UACC-62 melanoma): 2150 nM | GI50 (OVCAR-5 ovarian): 383 nM | TGI (OVCAR-5 ovarian): 11.3 µM | GI50 (BT-549 breast): 1990 nM | TGI (BT-549 breast): 6.64 µM | GI50 (MOLT-4 leukemia): 1680 nM | TGI (MOLT-4 leukemia): 5.82 µM | GI50 (CCRF-CEM leukemia): 3.75 µM | TGI (CCRF-CEM leukemia): 52.8 µM | GI50 (MDA-MB-231 breast): 308 nM | TGI (MDA-MB-231 breast): 5.09 µM | GI50 (DU-145 prostate): 2930 nM | TGI (DU-145 prostate): 13.3 µM | GI50 (K-562 leukemia): 168 nM | TGI (K-562 leukemia): > 100 µM | GI50 (HOP-92 NSCLC): 196 nM | TGI (HOP-92 NSCLC): 1780 nM | GI50 (HCT-15 colon): 1550 nM | TGI (HCT-15 colon): 4.03 µM | GI50 (SK-MEL-5 melanoma): 1080 nM | TGI (SK-MEL-5 melanoma): 11.1 µM | GI50 (NCI/ADR-RES ovarian): 2950 nM | TGI (NCI/ADR-RES ovarian): 19.1 µM | GI50 (SNB-75 CNS): 2430 nM | TGI (SNB-75 CNS): 11.8 µM | GI50 (ACHN renal): 1890 nM | TGI (ACHN renal): 12.1 µM | GI50 (SW-620 colon): 891 nM | TGI (SW-620 colon): 11.2 µM | GI50 (SF-268 CNS): 2460 nM | TGI (SF-268 CNS): 15.6 µM | GI50 (IGROV1 ovarian): 653 nM | TGI (IGROV1 ovarian): 12.6 µM | GI50 (SF-539 CNS): 518 nM | TGI (SF-539 CNS): 10.2 µM | GI50 (NCI-H226 lung): 555 nM | TGI (NCI-H226 lung): 9.79 µM | GI50 (OVCAR-3 ovarian): 3.33 µM | TGI (OVCAR-3 ovarian): 12.7 µM | GI50 (CAKI-1 renal): 2260 nM | TGI (CAKI-1 renal): 15.6 µM | GI50 (COLO 205 colon): 442 nM | TGI (COLO 205 colon): 9.17 µM | GI50 (MALME-3M melanoma): 118 nM | TGI (MALME-3M melanoma): 825 nM | GI50 (T-47D breast): 5.02 µM | TGI (T-47D breast): 27.6 µM | GI50 (OVCAR-4 ovarian): 4.01 µM | TGI (OVCAR-4 ovarian): 17 µM | GI50 (UO-31 renal): 381 nM | TGI (UO-31 renal): 10.9 µM | GI50 (MCF7 breast): 1910 nM | TGI (MCF7 breast): 6.84 µM | GI50 (HT29 colon): 346 nM | TGI (HT29 colon): 2110 nM | GI50 (NCI-H460 lung): 2300 nM | TGI (NCI-H460 lung): 10.2 µM | GI50 (MDA-MB-435): 442 nM | TGI (MDA-MB-435): 4.06 µM | GI50 (NCI-H522 lung): 1800 nM | TGI (NCI-H522 lung): 14.8 µM | GI50 (SK-MEL-28 melanoma): 264 nM | TGI (SK-MEL-28 melanoma): 1680 nM | GI50 (786-0 renal): 3.41 µM | TGI (786-0 renal): 17.9 µM | GI50 (RXF 393 renal): 799 nM | TGI (RXF 393 renal): 4.23 µM | GI50 (HOP-62 NSCLC): 1870 nM | TGI (HOP-62 NSCLC): 18.7 µM | GI50 (HS 578T breast): 1640 nM | TGI (HS 578T breast): 7.19 µM | GI50 (OVCAR-8 ovarian): 4.45 µM | TGI (OVCAR-8 ovarian): 24.5 µM | TGI (KM12 colon): 3.53 µM | GI50 (RPMI-8226 leukemia): 3.32 µM | TGI (RPMI-8226 leukemia): 22.5 µM | GI50 (A549 NSCLC): 3.27 µM | TGI (A549 NSCLC): 22.6 µM | GI50 (LOX IMVI melanoma): 257 nM | TGI (LOX IMVI melanoma): 1430 nM | GI50 (HCT-116 colon): 249 nM | TGI (HCT-116 colon): 2110 nM | GI50 (U251 CNS): 2880 nM | TGI (U251 CNS): 16.9 µM | GI50 (HCC-2998 colon): 771 nM | TGI (HCC-2998 colon): 4.35 µM
